According to US20060281771A1, “SYNERGISTIC MODULATION OF FLT3 KINASE USING AMINOQUINOLINE AND AMINOQUINAZOLINE KINASE MODULATORS” (priority 2005, published 2006):

Assays:
[1] = biological target: T1, wild-type FLT3 phosphorylation in Baf3 FLT3 cells (Homo sapiens, UniProt P36888); experiment: Cell-based FLT3 receptor ELISA; conditions: FLT ligand-induced FLT3 phosphorylation
T1 construct: host or cells: Baf3 (murine B cell lymphoma line)
T1 sequence (P36888 27-993): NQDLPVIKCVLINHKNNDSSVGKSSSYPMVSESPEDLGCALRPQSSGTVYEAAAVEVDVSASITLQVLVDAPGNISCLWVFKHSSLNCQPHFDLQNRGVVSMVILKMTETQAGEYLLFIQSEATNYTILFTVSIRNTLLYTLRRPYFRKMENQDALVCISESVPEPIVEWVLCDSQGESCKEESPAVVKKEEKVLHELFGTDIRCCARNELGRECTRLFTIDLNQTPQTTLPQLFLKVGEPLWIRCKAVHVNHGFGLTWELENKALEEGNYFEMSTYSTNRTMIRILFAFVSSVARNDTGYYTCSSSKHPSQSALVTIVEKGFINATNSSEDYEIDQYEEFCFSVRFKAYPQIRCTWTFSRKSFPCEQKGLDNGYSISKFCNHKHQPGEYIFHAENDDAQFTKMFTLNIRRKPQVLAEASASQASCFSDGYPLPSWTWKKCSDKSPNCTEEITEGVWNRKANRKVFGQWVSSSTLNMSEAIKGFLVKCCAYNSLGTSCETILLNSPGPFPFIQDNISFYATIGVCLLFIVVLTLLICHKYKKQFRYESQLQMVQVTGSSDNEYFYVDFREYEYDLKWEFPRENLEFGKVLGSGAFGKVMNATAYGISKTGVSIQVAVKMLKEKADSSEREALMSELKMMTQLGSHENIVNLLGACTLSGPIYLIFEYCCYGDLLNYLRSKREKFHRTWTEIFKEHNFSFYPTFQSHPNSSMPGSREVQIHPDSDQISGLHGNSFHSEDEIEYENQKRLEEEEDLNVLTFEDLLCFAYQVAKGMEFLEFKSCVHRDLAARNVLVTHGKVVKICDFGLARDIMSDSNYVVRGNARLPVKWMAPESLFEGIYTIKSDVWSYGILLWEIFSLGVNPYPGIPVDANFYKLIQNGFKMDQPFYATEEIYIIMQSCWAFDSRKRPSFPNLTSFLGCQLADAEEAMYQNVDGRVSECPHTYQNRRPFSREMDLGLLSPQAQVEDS
How it was run: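 Baf3 cells stably expressing wild-type human FLT3 were starved 16 h in 0.5% serum with 0.01 ng/mL IL-3, given compound for 1 h, then stimulated with 100 ng/mL FLT ligand for 10 min at 37 °C. Lysates were captured on anti-FLT3 plates and probed with HRP anti-phosphotyrosine (4G10), read by chemiluminescence. IC50 came from sigmoidal variable-slope fits of triplicates.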

[2] = biological target: T2, isolated kinase domain of the human FLT3 receptor (a.a. 571-993) (Homo sapiens, UniProt P36888); experiment: FLT3 fluorescence polarization kinase assay; format: biochemical
T2 construct: human FLT3 receptor (a.a. 571-993)
T2 sequence (P36888 571-993): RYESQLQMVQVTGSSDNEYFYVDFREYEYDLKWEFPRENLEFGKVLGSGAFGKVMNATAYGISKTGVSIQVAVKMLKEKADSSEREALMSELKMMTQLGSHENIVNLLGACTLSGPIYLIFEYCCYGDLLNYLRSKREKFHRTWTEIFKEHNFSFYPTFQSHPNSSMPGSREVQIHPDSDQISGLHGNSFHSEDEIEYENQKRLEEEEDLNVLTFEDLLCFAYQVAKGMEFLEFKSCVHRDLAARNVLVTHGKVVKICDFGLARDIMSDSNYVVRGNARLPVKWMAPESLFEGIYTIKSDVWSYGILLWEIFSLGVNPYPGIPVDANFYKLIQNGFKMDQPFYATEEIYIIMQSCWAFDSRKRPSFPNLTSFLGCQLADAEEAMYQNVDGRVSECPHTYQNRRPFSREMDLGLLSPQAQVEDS
Description: The FLT3 FP assay utilizes the fluorescein-labeled phosphopeptide and the anti-phosphotyrosine antibody included in the Panvera Phospho-Tyrosine Kinase Kit (Green) supplied by Invitrogen. When FLT3 phosphorylates polyGlu4Tyr, the fluorescein-labeled phosphopeptide is displaced from the anti-phosphotyrosine antibody by the phosphorylated poly Glu4Tyr, thus decreasing the FP value. […] The kinase reaction is stopped with the addition of EDTA. The fluorescein-labeled phosphopeptide and the anti-phosphotyrosine antibody are added and incubated for 30 minutes at room temperature.
All data points are an average of triplicate samples. Inhibition and IC50 data analysis was done with GraphPad Prism using a non-linear regression fit with a multiparamater, sigmoidal dose-response (variable slope) equation.

| Compound | IC50 [1] [nM] | IC50 [2] [nM] |
| --- | --- | --- |
| COc1cc2ncnc(N3CCCC(NC(=O)Nc4ccc(C(C)C)cc4)C3)c2cc1OC (stereo not drawn) [Compound 28, 1-[1-(6,7-Dimethoxy-quinazolin-4-yl)-piperidin-3-yl]-3-(4-isopropyl-phenyl)-urea] | 1900 | 510 |
| COc1cc2ncnc(N3CCCC(OC(=O)Nc4ccc(C(C)C)cc4)C3)c2cc1OC (stereo not drawn) [Compound 31, (4-Isopropyl-phenyl)-carbamic acid 1-[1-(6,7-dimethoxy-quinazolin-4-yl)-piperidin-3-yl]ester] | 1100 | 670 |
| COc1cc2ncc(C#N)c(N3CCC(OC(=O)Nc4ccc(OC(C)C)cc4)C3)c2cc1OC (stereo not drawn) [Compound 32, (4-Isopropoxy-phenyl)-carbamic acid 1-(3-cyano-6,7-dimethoxy-quinolin-4-yl)-pyrrolidin-3-yl ester] | 1200 | 868 |
| COc1cc2ncnc(N3CCCCC3COC(=O)Nc3ccc(C(C)C)cc3)c2cc1OC (stereo not drawn) [Compound 33, (4-Isopropyl-phenyl)-carbamic acid 1-(6,7-dimethoxy-quinazolin-4-yl)-piperidin-2-ylmethyl ester] | 559 | 1000 |
| COc1cc2ncnc(N3CCC(N(C)C(=O)Nc4ccc(OC(C)C)cc4)C3)c2cc1OC (stereo not drawn) [Compound 36, 1-[1-(6,7-Dimethoxy-quinazolin-4-yl)-pyrrolidin-3-yl]-3-(4-isopropoxy-phenyl)-1-methyl-urea] | 1300 | 1680 |
| COc1cc2ncc(C#N)c(N3CCC(OC(=O)Nc4ccc(C(C)C)cc4)C3)c2cc1OC (stereo not drawn) [Compound 37, (4-Isopropyl-phenyl)-carbamic acid 1-(3-cyano-6,7-dimethoxy-quinolin-4-yl)-pyrrolidin-3-yl ester] | 1100 | 2140 |

Next, values leading:

| IC50 [1] [nM] | IC50 [2] [nM] | Compound |
| --- | --- | --- |
| 331 | 433 | COc1cc2ncc(C#N)c(N3CCC(NC(=O)Nc4ccc(C(C)C)cc4)C3)c2cc1OC (stereo not drawn) [Compound 26, 1-[1-(3-Cyano-6,7-dimethoxy-quinolin-4-yl)-pyrrolidin-3-yl]-3-(4-isopropyl-phenyl)-urea] |
| 3100 | 531 | COc1cc2ncc(C#N)c(N3CCC(NC(=O)Nc4ccc(OC(C)C)cc4)C3)c2cc1OC (stereo not drawn) [Compound 29, 1-[1-(3-Cyano-6,7-dimethoxy-quinolin-4-yl)-pyrrolidin-3-yl]-3-(4-isopropoxy-phenyl)-urea] |
| > 3000 | 1300 | COc1cc2ncnc(N3CCC(NC(=O)Cc4ccc(C(C)C)cc4)C3)c2cc1OC (stereo not drawn) [Compound 35, N-[1-(6,7-Dimethoxy-quinazolin-4-yl)-pyrrolidin-3-yl]-2-(4-isopropyl-phenyl)-acetamide] |
